Reference: patent US10532065B2, “Bisphosphonic acid derivative and application for same” (NAGASAKI UNIVERSITY, priority 2014, dated 2020)
pEC50, pIC50: −log10 of the molar value. Entries after “also recorded” stand apart in the source; their conditions may differ. Where two headings read alike, the source gives them in different places.

Experiments:
Raji cells = assay: Raji tumor cell growth inhibition (CellTiterGlo); assay type: cell-based; conditions: Burkitt's lymphoma, 4 days culture
Procedure: (§2) To quantitatively study an action of compound 7, which is a bisphosphonic acid POM ester derivative, on various hematologic tumor-derived lymphoma and myeloidic leukemia cells, the concentration of a compound that inhibits cell proliferation to half was calculated as IC50, and a direct antitumor effect was studied from the value thereof. […] First, MOLT-4, THP-1, SCC-3, PEER, RAMOS-RA1, C1R, MOLT-3, Raji, U937, K562, Daudi were cultured in RPMI1640 medium supplemented with 10% calf serum at 37° C. under 5% CO2 atmosphere while maintaining log phase. The cells were recovered, and centrifuged at 1,700 rpm, 4° C. for 5 min. The supernatant was removed, and suspended in RPMI1640 medium supplemented with 10% calf serum to 500 cells/50 μl. On the other hand, 10 mM stock solution of compound 7 which is a bisphosphonic acid POM ester derivative was serially diluted 2-fold from 200 μM. In addition, 10 mM stock solution of compound 14 which is bisphosphonic acid was serially diluted 2-fold from 2 mM. Then, the cell suspension (50 μl, 500 cells) and the compound solution (50 μl) were added to a flat-bottomed 96 well plate and cultured at 37° C. under 5% CO2 atmosphere for 4 days. Then, 100 μl of CellTiterGlo solution was added, and the mixture was pipetted 10 strokes, and transferred to a 96 well OptiPlate. […]

PEER cells = assay: PEER tumor cell growth inhibition (CellTiterGlo); assay type: cell-based; conditions: T cell acute lymphocytic leukemia, 4 days culture
Procedure: as §2

[1] = tested on: YMB-1-E cells / γδ T cells; assay: TNF-α production from γδ T cells stimulated by compound-pretreated YMB-1-E cells; assay type: cell-based; conditions: Mammary carcinoma, 4 hr pretreatment, 16 hr with γδ T cells, read-out: TNF-α50
Procedure: (§1) Since the above-mentioned results of Experimental Example confirm that the activity of bisphosphonic acids becomes high by POM esterification in various tumor cells, the TNF-α production induction ability of more number of tumor cells was quantitatively studied. […] Thereto was added a solution (500 μl) of compound 7 obtained by serially diluting 10 mM stock solution 10-fold from 20 μM, or a solution (500 μl) of compound 14 obtained by serially diluting 10 mM stock solution 10-fold from 200 μM, and the cells were suspended well. These conical tubes were stood at 37° C. for 4 hr, and the cells were washed 3 times with 5 ml of culture medium. To these cells was added 500 μl of medium, and the cells were suspended well. […] The cell culture medium was suspended well, and the plate was centrifuged at 1,700 rpm, 4° C. for 2 min and the culture supernatant (150 μl) was taken and placed in another round-bottomed 96 well plate. The plate was frozen at −80° C. overnight, left standing at room temperature for 1 hr, stirred well and 100 μl thereof was subjected to ELISA of TNF-α. The content of TNF-α was calculated from the analytical curve of TNF-α. These were performed in triplicate, and TNF-α50 of bisphosphonic acid POM ester derivative (compound 7) and bisphosphonic acid (compound 14) was calculated and summarized in Table 8.

TFK-1 cells / γδ T cells = assay: TNF-α production from γδ T cells stimulated by compound-pretreated TFK-1 cells; assay type: cell-based; conditions: TFK-1, Cholangiocarcinoma, 4 hr pretreatment, 16 hr with γδ T cells, read-out: TNF-α50
Procedure: as §1

G-361 cells / γδ T cells = assay: TNF-α production from γδ T cells stimulated by compound-pretreated G-361 cells; assay type: cell-based; conditions: G-361, Melanoma, 4 hr pretreatment, 16 hr with γδ T cells, read-out: TNF-α50
Procedure: as §1

Raji cells / γδ T cells = assay: TNF-α production from γδ T cells stimulated by compound-pretreated Raji cells; assay type: cell-based; conditions: Burkitt's lymphoma, 4 hr pretreatment, 16 hr with γδ T cells, read-out: TNF-α50
Procedure: as §1

PC-3 cells / γδ T cells = assay: TNF-α production from γδ T cells stimulated by compound-pretreated PC-3 cells; assay type: cell-based; conditions: PC-3, Prostate cancer, 4 hr pretreatment, 16 hr with γδ T cells, read-out: TNF-α50
Procedure: as §1

[2] = tested on: γδ T cells in peripheral blood mononuclear cells of breast cancer patients; conditions: breast cancer patient PBMC, IL-2, 17 days of culture
Procedure: The obtained mononuclear cells were suspended in Yssel medium at 1.8×10^6 cells/ml, and seeded by 1.5 ml in each well of a 24-well plate. Compound 7 was added to each well at a concentration of 1 μM, and cultured at 37° C. under 5% CO2 atmosphere. After one day of culture, IL-2 was added at a concentration of 100 IU/ml, and the cells were cultured in the presence of 100 IU/ml IL-2 thereafter up to day 6, and cultured in the presence of 30 IU/ml IL-2 from day 7. After 14 days of culture, the cells were recovered, and cell surface molecule was analyzed by flow cytometry using labeled anti-CD3 antibody and labeled anti-Vδ2 antibody. As a control, an antibody having the same isotype as anti-CD3 antibody and anti-Vδ2 antibody but irrelevant thereto was used. The ratio (%) of γδ T cells having the Vδ2 region in CD3 cells was determined.
In the same manner as in Experimental Example 21 except that mononuclear cells obtained from the peripheral blood of breast cancer patients were used, compound 7 was added, and the cells were cultured at 37° C. under 5% CO2 atmosphere. […] After 17 days of culture, the cells were recovered, and cell surface molecule was analyzed by flow cytometry in the same manner as in Experimental Example 21. Also, the ratio (%) of γδ T cells having the Vδ2 region in CD3 cells was determined.

PEER cells / γδ T cells = assay: TNF-α production from γδ T cells stimulated by compound-pretreated PEER cells; assay type: cell-based; conditions: T cell acute lymphocytic leukemia, 4 hr pretreatment, 16 hr with γδ T cells, read-out: TNF-α50
Procedure: as §1

[3] = tested on: various tumor cell lines / γδ T cells; assay: TNF-α production induction ability in various tumor cell lines (FIG. 7, 8); assay type: cell-based; conditions: various tumor cell lines pretreated, γδ T cells (FIG. 7, 8)
Procedure: From the results of the above-mentioned Experimental Example, of the bisphosphonic acid POM ester derivatives, since the activity of compound 7 was high, the TNF-α production induction ability of this compound was studied using tumor cells other than EJ-1. In this case, to study effectiveness of POM esterification, using compound 14, which is the corresponding bisphosphonic acid, as a control to be the comparison target. […] Thereto was added a solution (500 μl) of compound 7 obtained by serially diluting 10 mM stock solution 10-fold from 20 μM, or a solution (500 μl) of compound 14 obtained by serially diluting 10 mM stock solution 10-fold from 200 μM, and the cells were suspended well. These conical tubes were stood at 37° C. for 4 hr, and the cells were washed 3 times with 5 ml of culture medium. To these cells was added 500 μl of medium, and the cells were suspended well. […] The content of TNF-α was calculated from the analytical curve of TNF-α. […]
Therefore, TNF-α production induction ability of compound 7 was studied in more number of tumor cell lines. […] The content of TNF-α was calculated from the analytical curve of TNF-α.
To quantitatively study the above-mentioned TNF-α production induction ability, various tumor cell lines were treated with compound 7, reacted with γδ T cells, the produced TNF-α amount was measured, and TNF-α50 value thereof was calculated. […]

PC-3 cells = assay: PC-3 tumor cell growth inhibition (CellTiterGlo); assay type: cell-based; conditions: PC-3, Prostate cancer, 4 days culture
Procedure: First, EJ-1, 786-0, MKN1, OST, PC-3, PK-1, LK-2, G-361, TFK-1, MRK-nu-1 were cultured in RPMI1640 medium supplemented with 10% calf serum at 37° C. under 5% CO2 atmosphere while maintaining log phase. The cells were recovered by a conventional EDTA trypsin treatment, and centrifuged at 1,700 rpm, 4° C. for 5 min. The supernatant was removed, and suspended in RPMI1640 medium supplemented with 10% calf serum to 500 cells/50 μl. On the other hand, 10 mM stock solution of compound 7 which is a bisphosphonic acid POM ester derivative was serially diluted 2-fold from 200 pM. In addition, 10 mM stock solution of compound 14 which is bisphosphonic acid was serially diluted 2-fold from 2 mM. Then, the cell suspension (50 μl, 500 cells) and the compound solution (50 μl) were added to a flat-bottomed 96 well plate and cultured at 37° C. under 5% CO2 atmosphere for 4 days. Then, 100 μl of CellTiterGlo solution was added, and the mixture was pipetted 10 strokes, and transferred to a 96 well OptiPlate. After standing at room temperature for 10 min, the luminescence was measured by a luminometer and IC50 value was calculated.

LK-2 cells / γδ T cells = assay: TNF-α production from γδ T cells stimulated by compound-pretreated LK-2 cells; assay type: cell-based; conditions: LK-2, Lung cancer, 4 hr pretreatment, 16 hr with γδ T cells, read-out: TNF-α50
Procedure: as §1

SMILES: CC(C)(C)C(=O)OCOP(=O)(OCOC(=O)C(C)(C)C)C(CNc1nccs1)P(=O)(OCOC(=O)C(C)(C)C)OCOC(=O)C(C)(C)C [Compound 7, tetrakispivaloyloxymethyl 2-(thiazol-2-ylamino) ethylidene-1,1-bisphosphonate]
- pIC50 (Raji cells): 6.57
- pIC50 (PEER cells): 7.64
- pEC50 [1]: 6.20
- pEC50 (TFK-1 cells / γδ T cells): 7.18
- pEC50 (G-361 cells / γδ T cells): 7.20
- pEC50 (Raji cells / γδ T cells): 7.28
- pEC50 (PC-3 cells / γδ T cells): 7.19
- ratio (%) of γδ T cells having the Vδ2 region in CD3 cells (purity) [2]: not less than 96%
- pEC50 (PEER cells / γδ T cells): 7.08
- TNF-α production induction ability (in words) [3]: TNF-α production induction ability becomes high by POM esterification in any tumor cells; also recorded: efficient induction of TNF-α production from γδ T cells in any cell line
- pIC50 (PC-3 cells): 6.66
- pEC50 (LK-2 cells / γδ T cells): 7.01

SMILES: O=P(O)(O)C(CNc1nccs1)P(=O)(O)O [Compound 14, 2-(thiazol-2-ylamino)ethylidene-1,1-bisphosphonic Acid, reference compound]
- pIC50 (Raji cells; Homo sapiens, 96 h): 3.92
- pIC50 (PEER cells; 96 h): 4.09
- pEC50 ([1]; Homo sapiens): < 4.00
- pEC50 (TFK-1 cells / γδ T cells; T-cell): < 4.00
- pEC50 (G-361 cells / γδ T cells; Homo sapiens): 5.29
- pEC50 (Raji cells / γδ T cells; Homo sapiens): < 4.00
- pEC50 (PC-3 cells / γδ T cells; Homo sapiens): 4.11
- pEC50 (PEER cells / γδ T cells): < 4.00
- pIC50 (PC-3 cells; Homo sapiens, 96 h): 4.00
- pEC50 (LK-2 cells / γδ T cells; Homo sapiens): < 4.00
